Measured values: ChEMBL document CHEMBL1201862, “PubChem BioAssay data set” (2004)
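1) Cells in 96-well plates. 2) Compound, 48 h, 5 concentrations. 3) Linear interpolation between surrounding doses. 4) Unreached endpoint = highest concentration. At the GI50, growth is halved.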 Active and inactive are the calls of the source. No stated cut-off is given here; in the data, active = GI50 up to about 1.1 µM and inactive = higher. Non-standard residues stand in square brackets, D forms with d. Residues, ends and D or L forms follow the SMILES beside them. *: point of attachment. Phe(4-NO2) = N[CH](Cc1ccc([N+](=O)[O-])cc1)C(=O)O; Boc = CC(C)(C)OC(=O)*

Key:
Assay in all cases: inhibition of tumour cell growth, NCI panel, 48 h
[1] = system: A498
[2] = system: COLO 205
[3] = system: DU-145
[4] = system: HCC 2998
[5] = system: HOP-62
[6] = system: HOP-92
[7] = system: HT-29
[8] = system: MCF7
[9] = system: MDA-MB-231
[10] = system: MOLT-4
[11] = system: Malme-3M
[12] = system: NCI-H522
[13] = system: PC-3
[14] = system: RXF 393
[15] = system: SF-295
[16] = system: SK-MEL-5
[17] = system: SK-OV-3
[18] = system: U-251
[19] = system: UO-31
[20] = system: KM12

Structure (SMILES): O=C(/C=C/c1ccc(O)c(O)c1)OCCCc1ccccc1
- GI50 [1]: 16.4 µM (inactive)
- GI50 [2]: 12.4 µM (inactive)
- GI50 [3]: 14.1 µM (inactive)
- GI50 [4]: 20.4 µM (inactive)
- GI50 [5]: 13.7 µM (inactive)
- GI50 [6]: 12.9 µM (inactive)
- GI50 [7]: 21.9 µM (inactive)
- GI50 [8]: 12 µM (inactive)
- GI50 [9]: 11.8 µM (inactive)
- GI50 [10]: 0.946 µM (active)
- GI50 [11]: 12.1 µM (inactive)
- GI50 [12]: 0.851 µM (active)
- GI50 [13]: 8.85 µM (inactive)
- GI50 [14]: 11.2 µM (inactive)
- GI50 [15]: 16 µM (inactive)
- GI50 [16]: 13.2 µM (inactive)
- GI50 [17]: 23.6 µM (inactive)
- GI50 [18]: 11 µM (inactive)
- GI50 [19]: 4.95 µM (inactive)

Structure (SMILES): O=C1c2ccccc2CCC1C(O)(C(F)(F)F)C(F)(F)F (stereo not given)
- GI50 [1]: > 100 µM (inactive)
- GI50 [2]: > 100 µM (inactive)
- GI50 [3]: > 100 µM (inactive)
- GI50 [4]: 3.67 µM (inactive)
- GI50 [6]: > 100 µM (inactive)
- GI50 [7]: > 100 µM (inactive)
- GI50 [20]: > 100 µM (inactive)
- GI50 [8]: > 100 µM (inactive)
- GI50 [9]: > 100 µM (inactive)
- GI50 [10]: 44.6 µM (inactive)
- GI50 [11]: > 100 µM (inactive)
- GI50 [12]: > 100 µM (inactive)
- GI50 [13]: > 100 µM (inactive)
- GI50 [14]: 93.8 µM (inactive)
- GI50 [15]: > 100 µM (inactive)
- GI50 [16]: 49.2 µM (inactive)
- GI50 [17]: > 100 µM (inactive)
- GI50 [18]: > 100 µM (inactive)
- GI50 [19]: > 100 µM (inactive)

Structure (SMILES): OC1NC2Nc3ccccc3NC2NC1O (stereo not given)
- GI50 [1]: > 100 µM (inactive)
- GI50 [2]: > 100 µM (inactive)
- GI50 [3]: > 100 µM (inactive)
- GI50 [4]: > 100 µM (inactive)
- GI50 [5]: > 100 µM (inactive)
- GI50 [6]: 30.8 µM (inactive)
- GI50 [7]: > 100 µM (inactive)
- GI50 [20]: > 100 µM (inactive)
- GI50 [8]: > 100 µM (inactive)
- GI50 [9]: > 100 µM (inactive)
- GI50 [10]: > 100 µM (inactive)
- GI50 [11]: > 100 µM (inactive)
- GI50 [12]: > 100 µM (inactive)
- GI50 [13]: > 100 µM (inactive)
- GI50 [14]: > 100 µM (inactive)
- GI50 [15]: > 100 µM (inactive)
- GI50 [16]: > 100 µM (inactive)
- GI50 [17]: > 100 µM (inactive)
- GI50 [18]: > 100 µM (inactive)

Structure (SMILES): Nc1ccc(C(=O)N/C(=C\c2cccc([N+](=O)[O-])c2)c2nc3c(O)nc(S)nc3[nH]2)cc1
- GI50 [1]: 65.8 µM (inactive)
- GI50 [2]: > 100 µM (inactive)
- GI50 [3]: > 100 µM (inactive)
- GI50 [4]: > 100 µM (inactive)
- GI50 [5]: 17.2 µM (inactive)
- GI50 [6]: 20.9 µM (inactive)
- GI50 [7]: > 100 µM (inactive)
- GI50 [20]: > 100 µM (inactive)
- GI50 [8]: > 93.8 µM (inactive)
- GI50 [9]: > 53 µM (inactive)
- GI50 [10]: > 56.2 µM (inactive)
- GI50 [11]: > 100 µM (inactive)
- GI50 [12]: > 100 µM (inactive)
- GI50 [13]: > 100 µM (inactive)
- GI50 [14]: 27.4 µM (inactive)
- GI50 [15]: 37.3 µM (inactive)
- GI50 [16]: > 100 µM (inactive)
- GI50 [17]: 22.8 µM (inactive)
- GI50 [18]: 42.7 µM (inactive)
- GI50 [19]: 30.3 µM (inactive)

Structure (SMILES): COCCCNc1c2ccccc2nc2ccccc12
- GI50 [1]: 3.97 µM (inactive)
- GI50 [2]: 2.11 µM (inactive)
- GI50 [3]: 2.52 µM (inactive)
- GI50 [4]: 1.56 µM (inactive)
- GI50 [5]: 3.29 µM (inactive)
- GI50 [6]: 3.58 µM (inactive)
- GI50 [7]: 2.82 µM (inactive)
- GI50 [20]: 4.39 µM (inactive)
- GI50 [8]: 2.34 µM (inactive)
- GI50 [9]: 3.25 µM (inactive)
- GI50 [10]: 3.57 µM (inactive)
- GI50 [11]: 1.87 µM (inactive)
- GI50 [12]: 1.64 µM (inactive)
- GI50 [13]: 2.01 µM (inactive)
- GI50 [14]: 3.35 µM (inactive)
- GI50 [15]: 3.61 µM (inactive)
- GI50 [16]: 2.14 µM (inactive)
- GI50 [17]: 2.78 µM (inactive)
- GI50 [19]: 2.05 µM (inactive)

Structure (SMILES): C=C(C(=O)O)[C@@H]1C[C@@H](OC(C)=O)[C@]2(C)CC/C=C(\C)CCC[C@H](C)[C@H](O)[C@@H]1O2
- GI50 [1]: > 100 µM (inactive)
- GI50 [2]: 33.1 µM (inactive)
- GI50 [3]: 83.9 µM (inactive)
- GI50 [4]: > 100 µM (inactive)
- GI50 [6]: 46 µM (inactive)
- GI50 [7]: 47.3 µM (inactive)
- GI50 [20]: 41.9 µM (inactive)
- GI50 [8]: 26.7 µM (inactive)
- GI50 [9]: > 100 µM (inactive)
- GI50 [10]: 24.7 µM (inactive)
- GI50 [11]: 61.7 µM (inactive)
- GI50 [12]: 18 µM (inactive)
- GI50 [13]: 39.7 µM (inactive)
- GI50 [14]: 18.5 µM (inactive)
- GI50 [15]: 24.7 µM (inactive)
- GI50 [16]: 30.2 µM (inactive)
- GI50 [17]: 34.5 µM (inactive)
- GI50 [18]: > 100 µM (inactive)

Structure (SMILES): CC(Br)CN1CCOCC1 (stereo not given)
- GI50 [1]: > 100 µM (inactive)
- GI50 [2]: > 100 µM (inactive)
- GI50 [3]: > 100 µM (inactive)
- GI50 [4]: > 100 µM (inactive)
- GI50 [5]: > 100 µM (inactive)
- GI50 [6]: > 100 µM (inactive)
- GI50 [7]: > 100 µM (inactive)
- GI50 [20]: > 100 µM (inactive)
- GI50 [8]: > 100 µM (inactive)
- GI50 [9]: > 100 µM (inactive)
- GI50 [11]: > 100 µM (inactive)
- GI50 [12]: > 100 µM (inactive)
- GI50 [13]: > 100 µM (inactive)
- GI50 [14]: > 100 µM (inactive)
- GI50 [16]: > 100 µM (inactive)
- GI50 [17]: > 100 µM (inactive)
- GI50 [18]: > 100 µM (inactive)
- GI50 [19]: > 100 µM (inactive)

Structure (SMILES): Cc1cc(S(=O)(=O)NC2=Nc3ccccc3C(c3ccccc3)N2)c(S)cc1Cl (stereo not given)
- GI50 [1]: > 100 µM (inactive)
- GI50 [2]: > 100 µM (inactive)
- GI50 [3]: > 100 µM (inactive)
- GI50 [4]: > 100 µM (inactive)
- GI50 [5]: > 100 µM (inactive)
- GI50 [6]: > 100 µM (inactive)
- GI50 [7]: > 100 µM (inactive)
- GI50 [20]: 58.6 µM (inactive)
- GI50 [8]: > 100 µM (inactive)
- GI50 [9]: 95.3 µM (inactive)
- GI50 [10]: 81.8 µM (inactive)
- GI50 [11]: > 100 µM (inactive)
- GI50 [12]: > 100 µM (inactive)
- GI50 [13]: 16.4 µM (inactive)
- GI50 [14]: 48.2 µM (inactive)
- GI50 [15]: 31.5 µM (inactive)
- GI50 [16]: > 100 µM (inactive)
- GI50 [17]: > 100 µM (inactive)
- GI50 [18]: 37.7 µM (inactive)
- GI50 [19]: 24.9 µM (inactive)

Structure (SMILES): Nc1ncnc2c1nc(-c1ccccc1)n2C1OC(CO)C(O)C1O (stereo not given)
- GI50 [1]: > 100 µM (inactive)
- GI50 [2]: > 100 µM (inactive)
- GI50 [3]: > 100 µM (inactive)
- GI50 [4]: > 100 µM (inactive)
- GI50 [5]: > 100 µM (inactive)
- GI50 [6]: > 100 µM (inactive)
- GI50 [7]: > 100 µM (inactive)
- GI50 [20]: 86.7 µM (inactive)
- GI50 [8]: > 100 µM (inactive)
- GI50 [9]: > 100 µM (inactive)
- GI50 [10]: > 100 µM (inactive)
- GI50 [12]: > 100 µM (inactive)
- GI50 [13]: > 100 µM (inactive)
- GI50 [14]: > 100 µM (inactive)
- GI50 [15]: > 100 µM (inactive)
- GI50 [16]: > 100 µM (inactive)
- GI50 [17]: > 100 µM (inactive)
- GI50 [18]: > 100 µM (inactive)
- GI50 [19]: > 100 µM (inactive)

Structure (SMILES): COC(=O)CCC(NC(=O)OC(C)(C)C)C(=O)NC(Cc1ccc([N+](=O)[O-])cc1)C(=O)NC(CCC(=O)OC)C(=O)OC (stereo not given) (Boc-Glu(OMe)-[Phe(4-NO2)]-Glu(OMe)-OMe; configuration not given here)
- GI50 [1]: > 100 µM (inactive)
- GI50 [2]: > 100 µM (inactive)
- GI50 [3]: > 100 µM (inactive)
- GI50 [4]: > 100 µM (inactive)
- GI50 [5]: > 100 µM (inactive)
- GI50 [6]: > 100 µM (inactive)
- GI50 [7]: 87.3 µM (inactive)
- GI50 [20]: > 100 µM (inactive)
- GI50 [8]: > 100 µM (inactive)
- GI50 [9]: > 100 µM (inactive)
- GI50 [10]: 24.9 µM (inactive)
- GI50 [11]: > 100 µM (inactive)
- GI50 [12]: > 100 µM (inactive)
- GI50 [13]: > 100 µM (inactive)
- GI50 [14]: > 100 µM (inactive)
- GI50 [15]: > 100 µM (inactive)
- GI50 [16]: > 100 µM (inactive)
- GI50 [17]: > 100 µM (inactive)
- GI50 [19]: > 100 µM (inactive)
